Test results published in US8512943B2, “Accessing the toxic potential of nanomaterials” (The Regents of the University of California, priority 2005, dated 2013).

What was measured:
[1] = tested on: TNF-α; experiment: TNF-α production by ELISA; format: cell-based, mouse
Source text: Triplicate aliquots of RAW 264.7 cells were exposed to NP for 6 hr. The culture media were collected, centrifuged to remove all debris and the resultant supernatant assayed by ELISA for TNF-α and Western blotting for Jun kinase.

[2] = tested on: HO-1; experiment: HO-1 expression by immunoblotting; format: cell-based, mouse
Description: GAPDH immunoblotting was used to ascertain equal protein loading (lower panels).
For Western blotting, 100 μg of total protein was separated by 10% SDS-PAGE and transferred to a PVDF membrane. After blocking, the membranes were incubated with primary antibodies against HO-1, phospho-JNK or JNK. The membranes were overlayed with secondary antibody before the addition of the HRP-conjugated avidin-biotin complex. The proteins were detected using ECL reagent according to the manufacturer's instructions. Protein abundance was quantified by densitometric scanning using a laser Personal Densitometer SI and Image Quant software (Amersham Biosciences).

[3] = tested on: RAW 264.7 cells; experiment: DiOC6 fluorescence, mitochondrial membrane potential (Δψm); format: cell-based
Description: (§1) Cells were stained with the fluorescent dyes diluted in DMEM. The following dye combinations were added for 15-30 min at 37° C. in the dark: (i) 47.5 μg/ml propidium iodide (PI) in 200 μl DMEM (assessment of cell death); (ii) 20 nM DiOC6 (assessment of Δψm); (iii) 2 μM MitoSOX™ red (superoxide generation) or 2 μM hydroethidine (HE, superoxide production); (iv) 2.5 μM 2,7 dichlorofluorescein (DCF, mostly assesses H2O2 production); (v) 5 μM Fluo-3 (assess cytoplasmic free calcium); (vi) 4 μM Rhod-2 (mitochondrial free calcium); (vii) 40 μM monobromobimane (MBB, assess intracellular thiol levels). Flow cytometry was performed using a FACScan (Becton Dickinson, Mountain View, Calif.) equipped with a single 488 nm argon laser. DiOC6 and Fluo-3 fluorescence were analyzed in the FL-1 channel, while PI, Rhod-2 and MitoSOX red fluorescence were analyzed in FL-2. HE fluorescence was analyzed using FL-3 channels. Monobromobimane fluorescence was excited by the UV laser tuned to 325 nm, and emission was measured at 510 nm (FL-4 channel) in the LSR flow cytometer. Forward and side scatter were used to gate out cellular fragments.
Toxic oxidative stress can perturb mitochondrial function in a number of ways, including disruption of electron flow in the inner membrane, dissipation of the mitochondrial membrane potential (Δψm), mitochondrial Ca^2+ uptake, and large-scale opening of the PTP. […]

[4] = tested on: RAW 264.7 cells
Description: Electron microscopy was performed as previously described (Yang A H, et al., In Vitro Cell Dev Biol 23:34-46, 1987). Thin sections were cut with a Reichert-Jung ultracut and ultramicrotome (Leica, Stuttgart, Germany). Copper grids were stained with lead citrate and uranyl acetate and photographed in a Hitachi electron microscope (Hitachi Instrument Inc., Tokyo, Japan).

[5] = tested on: RAW 264.7 cells; experiment: DCF fluorescence (H2O2 production), flow cytometry; format: cell-based, mouse
Description: (§2) RAW 264.7 cells were cultured in a 5% CO2 in Dulbecco's Modified Eagle Medium (DMEM) containing 10% FCS, 5000 U/ml penicillin, 500 μg/ml streptomycin, and 2 mM L-glutamine (complete medium). For exposure to NP, aliquots of 3×10^5 cells were cultured in 24-well plates in 0.5 ml of medium at 37° C. for the indicated time periods. All the NP solutions were prepared fresh from stock solutions (10 mg/ml) and the solutions were sonicated for 10 sec before addition to cell cultures.
Cells were stained with the fluorescent dyes diluted in DMEM. […] DiOC6 and Fluo-3 fluorescence were analyzed in the FL-1 channel, while PI, Rhod-2 and MitoSOX red fluorescence were analyzed in FL-2. HE fluorescence was analyzed using FL-3 channels. Monobromobimane fluorescence was excited by the UV laser tuned to 325 nm, and emission was measured at 510 nm (FL-4 channel) in the LSR flow cytometer. […]
The fold-increase in mean fluorescence intensity (MFI) of DCF was expressed as the ratio of particle-treated vs. control cells (FIG. 8A).

[6] = tested on: RAW 264.7 cells; experiment: Propidium iodide (PI) uptake, cellular toxicity; format: cell-based
Description: as §1
Large-scale PTP opening leads to mitochondrial depolarization, O2.^− production and the release of pro-apoptotic factors. Cellular toxicity was assessed by PI staining (FIG. 18C).

[7] = tested on: RAW 264.7 cells; experiment: MitoSOX Red fluorescence (mitochondrial superoxide production), flow cytometry; format: cell-based, mouse
Description: as §2

C[S+]([O-])CCCCN=C=S (stereo not drawn) [SFN, Sulforaphane]
effect of prior treatment on TNF-α production ([1]; pre-treatment 4 hr, then UFP 6 hr): interference
HO-1 expression after prior treatment ([2]; without NP): resulted in HO-1 expression

titanium dioxide [TiO2]
DiOC6 fluorescence (Δψm) [3]: failed to exert an influence
cellular uptake, subcellular localization and mitochondrial damage [4]: taken up into loose-fitting phagosomes without noticeable mitochondrial damage

CC(=O)N[C@@H](CS)C(=O)O [NAC, N-acetylcysteine]
effect on UFP-induced TNF-α production ([1]; pre-treatment 2 hr, then UFP 6 hr): capable of interfering
effect on ROS production by NH2-PS particles [5]: effectively disrupted
effect on UFP-induced H2O2 production ([5]; pretreatment, 4 and 16 hrs): significantly suppressed
effect on cytotoxicity of UFP and NH2-PS [6]: could interfere
effect on NH2-PS ROS response ([7]; 8 hrs): failed to suppress
effect on NH2-PS ROS response ([7]; 16 hrs): did interfere
effect on UFP-induced O2.− generation ([7]; all time points): could interfere
effect on induction of HO-1 expression by NP [2]: suppressed

Carbon Black
cellular uptake, subcellular localization and mitochondrial damage [4]: taken up in phagosomes without mitochondrial damage

Polymyxin B [PMB]
effect on LPS-induced TNF-α response ([1]; 6 hr): significant suppression
effect on UFP TNF-α response ([1]; 6 hr): small effect
